Assay results: the Kinase Knowledgebase extract (Sharma et al. 2016)

biological target: MAPK14 (human) (UniProt Q16539); test: Inhibition of MAPK14 Kinase Activity
Sequence (Q16539 whole entry, looked up): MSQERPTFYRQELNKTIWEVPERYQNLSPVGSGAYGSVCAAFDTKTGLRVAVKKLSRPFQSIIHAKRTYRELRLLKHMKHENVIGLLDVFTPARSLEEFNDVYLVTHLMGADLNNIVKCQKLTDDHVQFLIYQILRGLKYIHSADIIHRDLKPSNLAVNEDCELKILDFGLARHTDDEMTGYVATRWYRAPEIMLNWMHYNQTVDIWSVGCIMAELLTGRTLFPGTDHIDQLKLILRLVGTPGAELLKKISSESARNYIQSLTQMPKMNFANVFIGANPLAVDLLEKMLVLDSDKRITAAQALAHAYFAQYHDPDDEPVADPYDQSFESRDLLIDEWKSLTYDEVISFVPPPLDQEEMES

| IC50 [nM] | Compound |
| --- | --- |
| < 2000 | Cc1cccc(C(=O)c2c(N3CCC3)sc3c2ccc(=O)n3-c2ccccc2)c1 |
| < 2000 | CN1CCN(C(=O)Nc2sc3c(ccc(=O)n3-c3ccccc3)c2C(=O)c2ccccc2)CC1 |
| < 2000 | CN(C)[C@H]1CCN(c2sc3c(ccc(=O)n3-c3ccccc3)c2C(=O)c2ccccc2)C1 |
| < 2000 | Nc1sc2c(ccc(=O)n2-c2ccccc2)c1C(=O)c1ccc(F)cc1 |
| < 2000 | CC(C)(C)OC(=O)Nc1sc2c(ccc(=O)n2-c2ccccc2)c1C(=O)c1ccccc1 |
| < 2000 | CC(C)N1CCC(Nc2sc3c(ccc(=O)n3-c3ccccc3)c2C(=O)c2ccccc2)C1 (configuration not stated) |
| < 2000 | CCN1CCC(Nc2sc3c(ccc(=O)n3-c3ccccc3)c2C(=O)c2ccc(F)c(C)c2)CC1 |
| < 2000 | CCN1CCC(C(=O)Nc2sc3c(ccc(=O)n3-c3ccccc3)c2C(=O)c2ccccc2)CC1 |
| < 2000 | CN1CC(Nc2sc3c(ccc(=O)n3CC3CC3)c2C(=O)c2ccccc2)C1 |
| < 2000 | Cc1cccc(C(=O)c2c(NC3CCN(C)CC3)sc3c2ccc(=O)n3-c2ccccc2)c1 |
| < 2000 | CN(C)[C@H]1CCN(C(=O)Nc2sc3c(ccc(=O)n3-c3ccccc3)c2C(=O)c2ccccc2)C1 |
| < 2000 | CCN1CC[C@@H](NC(=O)Nc2sc3c(ccc(=O)n3-c3ccccc3)c2C(=O)c2ccc(F)c(C)c2)C1 |
| < 2000 | N#Cc1sc2c(ccc(=O)n2-c2ccccc2Cl)c1C(=O)c1ccccc1 |
| < 2000 | Cc1cc(C(=O)c2c(C(N)=O)sc3c2ccc(=O)n3-c2ccccc2)ccc1F |
| < 2000 | O=C(c1ccccc1)c1c(NC2CNC2)sc2c1ccc(=O)n2CC1CC1 |
| < 2000 | COc1cccc(C(=O)c2c(N)sc3c2ccc(=O)n3-c2ccccc2)c1 |
| < 2000 | CC(=O)Nc1sc2c(ccc(=O)n2-c2ccccc2)c1C(=O)c1ccc(F)c(Cl)c1 |
| < 2000 | CC(C)(CO)NC(=O)Nc1sc2c(ccc(=O)n2-c2ccccc2)c1C(=O)c1ccccc1 |
| < 2000 | O=C(c1ccccc1)c1c(NC2CNC2)sc2c1ccc(=O)n2-c1c(F)cccc1F |
| < 2000 | Cc1cc(C(=O)c2c(NC3CCN(C)CC3)sc3c2ccc(=O)n3-c2ccccc2)ccc1F |
| < 2000 | Cc1ccc(-n2c(=O)ccc3c(C(=O)c4ccccc4)c(N)sc32)cc1 |
| < 2000 | Cc1cccc(C(=O)c2c(NC3CCN(C(C)C)CC3)sc3c2ccc(=O)n3-c2ccccc2)c1 |
| < 2000 | Cc1cc(C(=O)c2c(NC(=O)C3CCN(C)CC3)sc3c2ccc(=O)n3-c2ccccc2)ccc1F |
| < 2000 | CCN1CCC(Nc2sc3c(ccc(=O)n3-c3ccccc3)c2C(=O)c2ccccc2)CC1 |
| < 2000 | CN1CCC[C@H](Nc2sc3c(ccc(=O)n3-c3ccccc3)c2C(=O)c2ccccc2)C1 |

| IC50 [nM] | Compound |
| --- | --- |
| < 2000 | Nc1sc2c(ccc(=O)n2-c2ccccc2)c1C(=O)c1cccc(OC(F)F)c1 |
| < 2000 | Cc1cc(C(=O)c2c(N)sc3c2ccc(=O)n3-c2ccccc2)ccc1F |
| < 2000 | Cc1ccc(-n2c(=O)ccc3c(C(=O)c4ccccc4)c(NC4CN(C)C4)sc32)cc1 |
| < 2000 | Cc1cc(C(=O)c2c(N[C@@H]3CCNC3)sc3c2ccc(=O)n3-c2ccccc2)ccc1F |
| < 2000 | CN1CCC[C@H]1C(=O)Nc1sc2c(ccc(=O)n2-c2ccccc2)c1C(=O)c1ccccc1 |
| < 2000 | O=C(c1ccccc1)c1c(NC(=O)C2CCNCC2)sc2c1ccc(=O)n2-c1ccccc1 |
| < 2000 | Cc1cc(C(=O)c2c([N+](=O)[O-])sc3c2ccc(=O)n3-c2ccccc2Cl)ccc1F |
| < 2000 | CCN1CC(Nc2sc3c(ccc(=O)n3-c3ccccc3)c2C(=O)c2ccccc2)C1 |
| < 2000 | Nc1sc2c(ccc(=O)n2-c2ccccc2)c1C(=O)c1ccc(C(F)(F)F)cc1 |
| < 2000 | Nc1sc2c(ccc(=O)n2-c2ccc(F)cc2)c1C(=O)c1ccccc1 |
| < 2000 | NC(=O)c1sc2c(ccc(=O)n2-c2ccccc2)c1C(=O)c1ccc(F)cc1F |
| < 2000 | CC(=O)Nc1sc2c(ccc(=O)n2-c2ccccc2)c1C(=O)c1cccs1 |
| < 2000 | CN1CC[C@@H](Nc2sc3c(ccc(=O)n3-c3ccccc3)c2C(=O)c2ccccc2)C1 |
| < 2000 | CCOC(=O)c1sc2c(ccc(=O)n2-c2ccccc2)c1C(=O)c1ccccc1 |
| < 2000 | O=C(c1ccccc1)c1c(C(=O)N2CCC2)sc2c1ccc(=O)n2-c1ccccc1 |
| < 2000 | Cc1cc(C(=O)c2c(NC3CN(C)C3)sc3c2ccc(=O)n3-c2ccccc2)ccc1F |
| < 2000 | Cc1cccc(C(=O)c2c(NC(=O)NCC(C)(C)O)sc3c2ccc(=O)n3-c2ccccc2)c1 |
| < 2000 | Cc1cc(C(=O)c2c(NC3CN(C(C)C)C3)sc3c2ccc(=O)n3-c2ccccc2)ccc1F |
| < 2000 | N#Cc1sc2c(ccc(=O)n2-c2ccccc2)c1C(=O)c1ccccc1 |
| < 2000 | Cc1cc(C(=O)c2c(NC(=O)NCC(C)(C)O)sc3c2ccc(=O)n3CC2CC2)ccc1F |
| < 2000 | NC(=O)CNc1sc2c(ccc(=O)n2-c2ccccc2)c1C(=O)c1ccccc1 |
| < 2000 | CC(=O)Nc1sc2c(ccc(=O)n2-c2ccccc2)c1C(=O)c1ccc(C)cc1 |
| < 2000 | O=C(c1ccccc1)c1c(N2CCOCC2)sc2c1ccc(=O)n2-c1ccccc1 |
| < 2000 | Cc1cccc(C(=O)c2c(NS(C)(=O)=O)sc3c2ccc(=O)n3-c2ccccc2)c1 |
| < 2000 | CCN1CCC(NC(=O)Nc2sc3c(ccc(=O)n3-c3ccccc3)c2C(=O)c2cccc(C)c2)C1 (configuration not stated) |

| IC50 [nM] | Compound |
| --- | --- |
| < 2000 | Cc1cccc(C(=O)c2c(C(=O)O)sc3c2ccc(=O)n3-c2ccccc2)c1 |
| < 2000 | Cc1cc(C(=O)c2c(NC(=O)NC(C)(C)CO)sc3c2ccc(=O)n3CC2CC2)ccc1F |
| < 2000 | Cc1cccc(C(=O)c2c(N3CCCCC3)sc3c2ccc(=O)n3-c2ccccc2)c1 |
| < 2000 | O=C(c1cccc(C(F)(F)F)c1)c1c(NC(=O)C2CCNCC2)sc2c1ccc(=O)n2-c1ccccc1 |
| < 2000 | CN1CCC(Nc2sc3c(ccc(=O)n3-c3ccccc3)c2C(=O)c2ccccc2)CC1 |
| < 2000 | Cc1cccc(C(=O)c2c(NC(=O)OC(C)(C)C)sc3c2ccc(=O)n3-c2ccccc2)c1 |
| < 2000 | Nc1sc2c(ccc(=O)n2-c2ccccc2)c1C(=O)c1nccs1 |
| < 2000 | Cc1cc(C(=O)c2c(N)sc3c2ccc(=O)n3-c2c(F)cccc2F)ccc1F |
| < 2000 | Cc1cc(C(=O)c2c(NC(=O)NC(C)(C)CO)sc3c2ccc(=O)n3-c2ccccc2Cl)ccc1F |
| < 2000 | O=C(c1ccccc1)c1c(NC2CCCNC2)sc2c1ccc(=O)n2-c1ccccc1 (configuration not stated) |
| < 2000 | Nc1sc2c(ccc(=O)n2-c2cccnc2)c1C(=O)c1ccccc1 |
| < 2000 | CN(C)c1ccc(-n2c(=O)ccc3c(C(=O)c4ccccc4)c(N)sc32)cn1 |
| < 2000 | CN1CCC(Nc2sc3c(ccc(=O)n3-c3ccc(F)cc3)c2C(=O)c2ccccc2)CC1 |
| < 2000 | Cc1cc(C(=O)c2c(N[C@H]3CCN(C)C3)sc3c2ccc(=O)n3-c2ccccc2)ccc1F |
| < 2000 | N#Cc1ccccc1C(=O)c1c(N)sc2c1ccc(=O)n2-c1ccccc1 |
| < 2000 | Cc1cccc(C(=O)c2c(NC(N)=O)sc3c2ccc(=O)n3-c2ccccc2)c1 |
| < 2000 | Cc1cccc(C(=O)c2c(N)sc3c2ccc(=O)n3-c2ccccc2Cl)c1 |
| < 2000 | CN1CC(CNc2sc3c(ccc(=O)n3-c3ccccc3)c2C(=O)c2ccccc2)C1 |
| < 2000 | Cc1cccc(C(=O)c2csc3c2ccc(=O)n3-c2ccccc2)c1 |
| < 2000 | CC(C)(O)CNC(=O)Nc1sc2c(ccc(=O)n2-c2ccccc2)c1C(=O)c1ccccc1 |
| < 2000 | Cc1cccc(C(=O)c2c(NC(=O)NNS(C)(=O)=O)sc3c2ccc(=O)n3-c2ccccc2)c1 |
| < 2000 | Cc1cc(C(=O)c2c(NC(=O)C3CCNCC3)sc3c2ccc(=O)n3-c2ccccc2F)ccc1F |
| < 2000 | O=C(c1ccccc1)c1c(N[C@@H]2CCCNC2)sc2c1ccc(=O)n2-c1ccccc1 |
| < 2000 | Cc1cc(C(=O)c2c(NC(=O)C3CCN(C)CC3)sc3c2ccc(=O)n3-c2ccccc2F)ccc1F |
| < 2000 | CN1CC(Nc2sc3c(ccc(=O)n3-c3c(F)cccc3F)c2C(=O)c2ccccc2)C1 |

| IC50 [nM] | Compound |
| --- | --- |
| < 2000 | Cc1cc(C(=O)c2c(NC3CCN(C(C)C)CC3)sc3c2ccc(=O)n3-c2ccccc2)ccc1F |
| < 2000 | CC(=O)Nc1sc2c(ccc(=O)n2-c2ccccc2)c1C(=O)c1cccc(OC(F)F)c1 |
| < 2000 | CN(C)[C@@H]1CCN(C(=O)Nc2sc3c(ccc(=O)n3-c3ccccc3)c2C(=O)c2ccccc2)C1 |
| < 2000 | CC(=O)Nc1sc2c(ccc(=O)n2-c2ccccc2)c1C(=O)c1cccc(Cl)c1 |
| < 2000 | O=C(c1ccccc1)c1c(C(=O)N2CCOCC2)sc2c1ccc(=O)n2-c1ccccc1 |
| < 2000 | Nc1sc2c(ccc(=O)n2CC2CC2)c1C(=O)c1ccccc1 |
| < 2000 | Cc1cccc(C(=O)c2c(N[C@H]3CCNC3)sc3c2ccc(=O)n3-c2ccccc2)c1 |
| < 2000 | Nc1sc2c(ccc(=O)n2-c2ccccc2)c1C(=O)c1ccc(OC(F)(F)F)cc1 |
| < 2000 | CN1CC[C@H](Nc2sc3c(ccc(=O)n3-c3ccccc3)c2C(=O)c2ccccc2)C1 |
| < 2000 | Cc1ccc(C(=O)c2c(N)sc3c2ccc(=O)n3-c2ccccc2)cc1C |
| < 2000 | CC(=O)Nc1sc2c(ccc(=O)n2-c2ccccc2)c1C(=O)c1ccc(F)c(C)c1 |
| < 2000 | CC(C)N1CCC(Nc2sc3c(ccc(=O)n3-c3ccccc3)c2C(=O)c2ccccc2)CC1 |
| < 2000 | CC(=O)Nc1sc2c(ccc(=O)n2CC2CC2)c1C(=O)c1ccc(F)c(C)c1 |
| < 2000 | CC(C)N[C@H]1CCN(C(=O)Nc2sc3c(ccc(=O)n3-c3ccccc3)c2C(=O)c2ccccc2)C1 |
| < 2000 | Cc1cccc(C(=O)c2c(N)sc3c2ccc(=O)n3-c2ccccc2)c1 |
| < 2000 | CC(=O)Nc1sc2c(ccc(=O)n2-c2ccccc2)c1C(=O)c1ccccc1F |
| < 2000 | CC(=O)Nc1sc2c(ccc(=O)n2-c2ccccc2)c1C(=O)c1ccccc1C |
| < 2000 | Cc1cc(C(=O)c2c(NC(=O)N3CC[C@@H](N(C)C)C3)sc3c2ccc(=O)n3-c2ccccc2)ccc1F |
| < 2000 | O=C(c1cccc(Cl)c1)c1c(NC(=O)C2CCNCC2)sc2c1ccc(=O)n2-c1ccccc1 |
| < 2000 | Cc1cc(C(=O)c2c(NC(=O)N3CCN(C)CC3)sc3c2ccc(=O)n3-c2ccccc2)ccc1F |
| < 2000 | Cc1cccc(C(=O)c2c(NC(=O)N3CCC3)sc3c2ccc(=O)n3-c2ccccc2)c1 |
| < 2000 | CC(=O)Nc1sc2c(ccc(=O)n2CC2CC2)c1C(=O)c1ccccc1 |
